Earlier results in patent publication EP3290033A2, “PHARMACEUTICAL PACKAGE” (Samyang Biopharmaceuticals Corporation, priority 2015, dated 2016).

How the values were obtained:
[1] = higher than that of other first-generation 5-HT3 receptor antagonists
[2] = in vivo

## O=C1c2cccc3c2[C@H](CCC3)CN1[C@@H]1CN2CCC1CC2 [palonosetron, (3aS)-2-[(3S)-1-azabicyclo[2.2.2]oct-3-yl]-2,3,3a,4,5,6-hexahydro-1H-benz[de]isoquinolin-1-one]
[1]
  inhibitory effect on delayed vomiting: 10 times
[2]
  half-life: ≥ 40 h
